ChEMBL document CHEMBL1201862, “PubChem BioAssay data set” (2004)
The source made the active and inactive calls.

Experiments:
[1] = NIH-3T3 fibroblast cytotoxicity, dose response, cytotoxicity control, cell-based, fluorescence, Alamar Blue, secondary assay (AID 2327); assay type: functional;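 also: NIH-3T3 mouse fibroblasts cultured with fluconazole at 8 µg/mL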
[2] = fluconazole-exposed Candida albicans growth modulators – fluorescence, retest, confirmation (AID 2467); assay type: functional, cell-based
[3] = molecular target: T1, CAAX prenyl protease 2 (Saccharomyces cerevisiae S288c, UniProt Q03530); assay type: biochemical
T1 sequence (Q03530 whole entry): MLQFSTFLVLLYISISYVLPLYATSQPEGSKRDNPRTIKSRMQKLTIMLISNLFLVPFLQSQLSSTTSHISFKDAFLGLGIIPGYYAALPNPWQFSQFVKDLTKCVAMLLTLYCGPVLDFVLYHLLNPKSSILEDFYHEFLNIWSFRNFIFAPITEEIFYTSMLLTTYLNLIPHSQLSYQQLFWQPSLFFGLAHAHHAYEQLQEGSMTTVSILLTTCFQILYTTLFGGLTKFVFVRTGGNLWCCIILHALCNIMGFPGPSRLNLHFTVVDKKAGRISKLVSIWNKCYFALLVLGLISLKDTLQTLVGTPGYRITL

[4] = molecular target: T2, CAAX prenyl protease 2 (Homo sapiens, UniProt Q9Y256); assay: inhibition of Ras-converting CAAX protease Rce1 – biochemical, yeast membranes, quenched-peptide fluorescence, cherry-pick, dose response (AID 588849)
T2 sequence (Q9Y256 whole entry): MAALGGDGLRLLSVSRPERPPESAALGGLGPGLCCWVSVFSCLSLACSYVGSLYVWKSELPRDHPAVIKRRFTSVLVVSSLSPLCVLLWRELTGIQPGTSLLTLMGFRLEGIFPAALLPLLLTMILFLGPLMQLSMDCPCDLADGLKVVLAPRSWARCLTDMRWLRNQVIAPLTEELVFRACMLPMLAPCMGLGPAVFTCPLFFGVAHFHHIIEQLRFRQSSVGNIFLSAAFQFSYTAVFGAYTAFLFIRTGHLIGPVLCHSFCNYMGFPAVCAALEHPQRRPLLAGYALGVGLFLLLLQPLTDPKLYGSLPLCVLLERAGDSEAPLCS

[5] = molecular target: T3, Adenosylmethionine-8-amino-7-oxononanoate aminotransferase (Mycobacterium tuberculosis, UniProt P9WQ81); assay: Mycobacterium tuberculosis BioA enzyme inhibitor Measured in Biochemical System Using Plate Reader - 2163-02_Inhibitor_Dose_CherryPick_Activity.; assay type: functional, Mycobacterium tuberculosis UT205
T3 sequence (P9WQ81 whole entry): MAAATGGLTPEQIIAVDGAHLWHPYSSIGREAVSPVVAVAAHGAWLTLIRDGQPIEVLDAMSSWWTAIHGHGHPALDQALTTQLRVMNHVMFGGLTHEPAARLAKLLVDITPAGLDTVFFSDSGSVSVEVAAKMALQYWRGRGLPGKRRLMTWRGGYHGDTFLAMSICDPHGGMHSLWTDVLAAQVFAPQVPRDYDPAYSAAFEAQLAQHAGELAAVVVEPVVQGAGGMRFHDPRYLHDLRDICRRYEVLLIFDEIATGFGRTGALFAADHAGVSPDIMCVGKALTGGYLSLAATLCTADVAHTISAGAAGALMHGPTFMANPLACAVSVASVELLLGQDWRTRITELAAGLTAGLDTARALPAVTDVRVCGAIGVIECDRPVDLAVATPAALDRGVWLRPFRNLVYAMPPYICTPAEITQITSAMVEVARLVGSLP

[6] = molecular target: T4, Short transient receptor potential channel 4 (Mus musculus, UniProt Q9QUQ5); assay: block of DAMGO-driven TRPC4 calcium entry – cell-based, HEK293 TRPC4/mu-opioid, Fluo-4 calcium, dose response (AID 434942); assay type: functional;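 also: potency of inhibitors blocking the TRPC4 calcium response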
T4 sequence (Q9QUQ5 whole entry): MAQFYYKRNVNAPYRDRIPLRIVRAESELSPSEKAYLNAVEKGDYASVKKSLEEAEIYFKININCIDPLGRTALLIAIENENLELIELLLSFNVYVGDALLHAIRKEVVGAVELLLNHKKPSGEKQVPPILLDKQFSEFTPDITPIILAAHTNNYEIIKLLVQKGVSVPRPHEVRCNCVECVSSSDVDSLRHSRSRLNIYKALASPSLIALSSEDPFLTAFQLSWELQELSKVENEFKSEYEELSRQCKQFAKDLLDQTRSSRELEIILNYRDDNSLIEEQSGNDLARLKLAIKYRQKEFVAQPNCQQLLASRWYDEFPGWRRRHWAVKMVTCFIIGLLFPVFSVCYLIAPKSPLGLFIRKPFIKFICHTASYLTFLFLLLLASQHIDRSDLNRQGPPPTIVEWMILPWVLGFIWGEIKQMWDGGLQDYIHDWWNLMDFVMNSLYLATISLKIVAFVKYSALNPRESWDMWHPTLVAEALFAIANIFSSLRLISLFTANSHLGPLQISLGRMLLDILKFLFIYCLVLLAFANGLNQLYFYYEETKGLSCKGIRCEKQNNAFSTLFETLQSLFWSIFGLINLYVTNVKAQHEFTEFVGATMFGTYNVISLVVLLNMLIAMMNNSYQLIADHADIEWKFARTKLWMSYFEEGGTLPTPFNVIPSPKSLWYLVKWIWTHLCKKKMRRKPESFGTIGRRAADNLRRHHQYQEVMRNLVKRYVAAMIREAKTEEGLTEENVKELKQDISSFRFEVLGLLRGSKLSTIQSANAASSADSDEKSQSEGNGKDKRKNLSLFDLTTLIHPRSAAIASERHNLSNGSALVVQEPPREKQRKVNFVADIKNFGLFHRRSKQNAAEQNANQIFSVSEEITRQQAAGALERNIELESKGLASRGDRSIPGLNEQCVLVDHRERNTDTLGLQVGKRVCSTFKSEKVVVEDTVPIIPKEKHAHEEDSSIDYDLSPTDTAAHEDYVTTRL

[7] = molecular target: T4, Short transient receptor potential channel 4; assay: calcium entry via TRPC4 opening agents – cell-based, HEK293 TRPC4/mu-opioid, Fluo-4 calcium, dose response (AID 434937); assay type: functional
[8] = molecular target: T5, Hexokinase (Trypanosoma brucei, UniProt Q38C41); assay: Confirmation assay for inhibitors of Trypanosoma brucei hexokinase 1-Analogue-first series. [Related pubchem assays (depositor defined):AID1430, AID1632, AID2516, AID2560, AID2579, AID2600, AID449725, AID492951]; assay type: functional
T5 sequence (Q38C41 whole entry): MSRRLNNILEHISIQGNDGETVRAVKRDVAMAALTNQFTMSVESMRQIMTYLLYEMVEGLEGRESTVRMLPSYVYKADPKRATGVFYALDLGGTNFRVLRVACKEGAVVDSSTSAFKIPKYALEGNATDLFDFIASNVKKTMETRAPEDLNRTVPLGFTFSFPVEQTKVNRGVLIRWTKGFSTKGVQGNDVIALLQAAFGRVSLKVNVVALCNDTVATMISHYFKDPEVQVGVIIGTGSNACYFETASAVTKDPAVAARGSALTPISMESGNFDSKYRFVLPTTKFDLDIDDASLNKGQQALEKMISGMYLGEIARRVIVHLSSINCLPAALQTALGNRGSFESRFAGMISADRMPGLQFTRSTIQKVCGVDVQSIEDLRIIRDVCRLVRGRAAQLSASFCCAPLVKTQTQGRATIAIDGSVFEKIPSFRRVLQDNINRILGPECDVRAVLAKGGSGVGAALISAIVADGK

[9] = molecular target: Trypsin (Sus scrofa, UniProt P00761); assay: trypsin protease activity blockade – biochemical, quenched peptide fluorescence, cherry-pick, selectivity assay for Rce1 protease inhibitor project, dose response (AID 488789)
Sequence of Trypsin (P00761 whole entry): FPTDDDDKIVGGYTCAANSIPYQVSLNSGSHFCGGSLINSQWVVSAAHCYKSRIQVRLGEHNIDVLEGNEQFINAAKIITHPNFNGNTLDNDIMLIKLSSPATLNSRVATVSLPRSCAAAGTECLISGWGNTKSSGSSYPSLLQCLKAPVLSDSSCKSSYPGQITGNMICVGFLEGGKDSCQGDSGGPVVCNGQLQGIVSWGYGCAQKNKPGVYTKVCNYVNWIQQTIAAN

## O=[N+]([O-])c1ccc(C[n+]2c(-c3ccccc3)cc(-c3ccccc3)cc2-c2ccccc2)cc1.[O-][Cl+3]([O-])([O-])[O-]
[1]
  EC50: 23.7 µM (active)
[2]
  EC50: 2.75 µM (active)
[3]
  AC50: 81.6 µM (active)
[4]
  AC50: 68.4 µM (active)
[5]
  AC50: 4.55 µM (active)

## OCC1(CC2CCCCO2)CCN(Cc2nc3ccccc3[nH]2)CC1 (stereo unspecified)
[6]
  EC50: 3.35 µM (active)
[7]
  EC50: 5.31 µM (active)

## COc1cc(C(=O)Nc2cc(Cl)ccc2C(=O)O)cc(OC)c1OC
[8]
  IC50: > 25 µM (inactive)

## O=C(O)c1ccccc1NCCO
[9]
  AC50: 8.2 µM (active)
[3]
  AC50: 16.1 µM (active)
[4]
  AC50: 5.81 µM (active)
